Measured values as given in patent publication US7723366B2 (Chugai Seiyaku Kabushiki Kaisha, priority 2001, dated 2010).

What was measured:
[1] = target: T1, malonyl-CoA decarboxylase prepared from rat heart (Rattus norvegicus, UniProt Q920F5); assay: In vitro MCD inhibitory assay (spectrophotometric, 96 well); type: biochemical; settings: read-out: IC50 of the MCD inhibitors
T1 construct: from tissue; host or cells: rat heart
T1 sequence (Q920F5 39-492): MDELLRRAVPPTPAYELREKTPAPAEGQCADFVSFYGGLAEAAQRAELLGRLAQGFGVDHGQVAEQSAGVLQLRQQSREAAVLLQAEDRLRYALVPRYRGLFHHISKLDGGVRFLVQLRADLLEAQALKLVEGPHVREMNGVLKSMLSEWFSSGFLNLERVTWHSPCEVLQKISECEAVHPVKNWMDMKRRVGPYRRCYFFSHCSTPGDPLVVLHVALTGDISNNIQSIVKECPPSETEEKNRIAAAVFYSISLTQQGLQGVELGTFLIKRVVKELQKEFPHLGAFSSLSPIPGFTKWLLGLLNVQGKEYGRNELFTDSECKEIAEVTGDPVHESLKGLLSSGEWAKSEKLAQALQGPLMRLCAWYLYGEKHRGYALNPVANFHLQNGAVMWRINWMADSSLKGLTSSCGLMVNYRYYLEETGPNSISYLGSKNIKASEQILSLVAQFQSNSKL
Protocol: The following reagents are added into a 96 well titer plate: Tris-HCl buffer, 20 μL; DTE, 10 μL; I -malate, 20 μL; NAD, 10 μL; NADH, 25 μL; water, 80 μL; malic dehydrogenase, 5 μL. The contents are mixed and incubated for 2 min followed by the addition of 5 μL of citrate synthase. […] The content is incubated and absorbence at […] is measured.
Active compounds are characterized by the concentration of the compound that caused 50% inhibition of MCD activity (IC50).

[2] = test system: human breast cancer cells and xenografts; settings: cited from earlier work
[3] = test system: isolated working hearts from male Sprague-Dawley rats; assay: Glucose oxidation and fatty acid oxidation measurement in the perfused rat heart; settings: compared with known metabolism modulators ranolazine or trimetazidine
Protocol: Isolated working hearts from male Sprague-Dawley rats are subjected to a 60-minute aerobic perfusion period with a modified Krebs-Henseleit solution containing 5 mmol/L glucose; 100 μU/mL insulin; 3% BAS; and 1.2 mmol/L palmitate. Working hearts are used in these studies to approximate the metabolic demand of the heart seen in vivo. (Kantor et al., Circulation Research 86:580-588(2000)). The test compound is added 5 minutes into the perfusion period.
Glucose oxidation rates are determined by the quantitative collection of ^14CO2 produced by hearts perfused with buffer containing […]. Rates of fatty acid oxidation are determined by the quantitative collection of ^14CO2 produced by hearts perfused with buffer containing [^14C]palmitate (McNeill, J. H. in “Measurement of cardiovascular function”, chapter 2, CRC press, New York (1997)).
Active compounds are characterized by an increase in glucose oxidation as compared to control experiment (DMSO). The compounds that caused statistically significant increases in glucose oxidation are considered to be active. The preferred compounds cause statistically significant increases in glucose oxidation at 20 μM. Statistical significance was calculated using the Student's t test for paired or unpaired samples, as appropriate. The results with P<0.05 are considered to be statistically significant.

[4] = test system: muscle (M) isoform of CPT-I; settings: read-out: IC50 of malonyl-CoA inhibition of CPT-I; cited from earlier work

SMILES	IC50 [1]	other results
CCCN(C(=O)N(CC(C)C)CC(C)C)c1ccc2nc(S)sc2c1 [Table 5; entry 5]	263 nM	
S=C(Nc1ccccc1)N(Cc1ccccc1)c1ccc2nc(S)sc2c1 [Table 3; entry 8]	240 nM	
CCCCCCCCCCCCCCOc1ccc(C(=O)O)o1 [TOFA, 5-(tetradecyloxy)-2-furoic acid]		malonyl-CoA level ([2]; breast carcinoma cells): 60 % of the control; antitumor activity [2]: does not show any antitumor activity
O=C(COc1ccccc1)N(Cc1ccccc1)c1ccc2nc(S)sc2c1 [Table 4; entry 1, N-(2-mercapto-1,3-benzothiazol-6-yl)-N-(phenylmethyl)-2-(phenyloxy)acetamide]	1020 nM	
CCOC(=O)c1csc(S)n1 [Table 8; entry 1, Ethyl 2-Mercapto-1,3-thiazole-4-carboxylate]		melting point: 120 to 121 °C
CCN(C(=O)Nc1ccccc1)c1ccc2nc(S)sc2c1 [Table 3; entry 5]	54 nM	effects in metabolism shift compared with ranolazine or trimetazidine [3]: more profound effects in metabolism shift
CCCCCCNc1ccc2nc(S)sc2c1 [Table 2; entry 1, 6-(hexylamino)-1,3-benzothiazole-2-thiol]	535 nM	
CC(C)(COP(=O)(O)OP(=O)(O)OC[C@H]1O[C@@H](n2cnc3c(N)ncnc32)[C@H](O)[C@@H]1OP(=O)(O)O)[C@@H](O)C(=O)NCCC(=O)NCCSC(=O)CC(=O)O [Malonyl-CoA]		IC50 [4]: 30 nM
O=S(=O)(c1ccc2sc(S)nc2c1)N1CCCCC1 [Table 7; entry 2]	466 nM	
CCCCCCN(C(=O)Nc1cc(OC)cc(OC)c1)c1ccc2nc(S)sc2c1 [Table 3; entry 1, N′-[3,5-bis(methyloxy)phenyl]-N-hexyl-N-(2-mercapto-1,3-benzothiazol-6-yl)urea]	65 nM	effects in metabolism shift compared with ranolazine or trimetazidine [3]: more profound effects in metabolism shift
Sc1nc2ccc(NCc3ccccc3)cc2s1 [Table 2; entry 3, 6-[(phenylmethyl)amino]-1,3-benzothiazole-2-thiol]	2620 nM	
